Assay results: ChEMBL document CHEMBL2311270, “Additional acetyl cholinesterase inhibitory property of diaryl pyrazoline derivatives” (Bioorg Med Chem Lett, 2013)
The source made the active and inactive calls. No cut-off for these calls is given here.

Biological target: Acetylcholinesterase (Homo sapiens, UniProt P22303)
Sequence (P22303 whole entry): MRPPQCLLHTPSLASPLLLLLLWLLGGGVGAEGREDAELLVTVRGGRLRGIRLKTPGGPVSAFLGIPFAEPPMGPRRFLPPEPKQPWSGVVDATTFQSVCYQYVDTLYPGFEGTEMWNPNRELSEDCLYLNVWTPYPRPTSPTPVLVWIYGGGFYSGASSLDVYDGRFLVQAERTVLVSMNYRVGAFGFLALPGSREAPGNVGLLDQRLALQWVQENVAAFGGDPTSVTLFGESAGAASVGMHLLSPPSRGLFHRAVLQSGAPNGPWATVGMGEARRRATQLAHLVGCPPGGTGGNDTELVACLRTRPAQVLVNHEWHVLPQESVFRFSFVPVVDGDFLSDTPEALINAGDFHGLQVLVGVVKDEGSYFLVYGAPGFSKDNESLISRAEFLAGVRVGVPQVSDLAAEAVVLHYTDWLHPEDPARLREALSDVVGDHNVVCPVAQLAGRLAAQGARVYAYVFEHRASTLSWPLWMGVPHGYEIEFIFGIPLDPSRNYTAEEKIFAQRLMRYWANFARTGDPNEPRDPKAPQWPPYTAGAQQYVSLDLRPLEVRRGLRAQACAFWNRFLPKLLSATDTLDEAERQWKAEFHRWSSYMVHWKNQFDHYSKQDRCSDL
Description: Inhibition of human erythrocyte AChE using acetylthiocholine iodide as substrate after 60 mins by Ellman's method

Row | SMILES | Ki
1 | COc1ccc([C@@H]2CC(c3c4ccccc4cc4ccccc34)=NN2)cc1 | 25.4 nM
2 | Oc1ccccc1[C@@H]1CC(c2c3ccccc3cc3ccccc23)=NN1 | 24.4 nM
3 | c1ccc([C@@H]2CC(c3c4ccccc4cc4ccccc34)=NN2)nc1 | 41.3 nM
4 | c1ccc([C@@H]2CC(c3c4ccccc4cc4ccccc34)=NN2)cc1 | 30.2 nM
5 | O=[N+]([O-])c1cccc([C@@H]2CC(c3c4ccccc4cc4ccccc34)=NN2)c1 | 20.6 nM
6 | Oc1ccc([C@@H]2CC(c3c4ccccc4cc4ccccc34)=NN2)cc1 | > 100 nM
7 | Oc1ccc([C@@H]2CC(c3c4ccccc4cc4ccccc34)=NN2)c(O)c1 | 7.2 nM
8 | O=[N+]([O-])c1ccc([C@@H]2CC(c3c4ccccc4cc4ccccc34)=NN2)cc1 | > 100 nM
9 | Cc1ccc([C@@H]2CC(c3c4ccccc4cc4ccccc34)=NN2)cc1 | > 100 nM

Biological target: Cholinesterase (Equus caballus) (UniProt P81908)
Sequence (P81908 whole entry): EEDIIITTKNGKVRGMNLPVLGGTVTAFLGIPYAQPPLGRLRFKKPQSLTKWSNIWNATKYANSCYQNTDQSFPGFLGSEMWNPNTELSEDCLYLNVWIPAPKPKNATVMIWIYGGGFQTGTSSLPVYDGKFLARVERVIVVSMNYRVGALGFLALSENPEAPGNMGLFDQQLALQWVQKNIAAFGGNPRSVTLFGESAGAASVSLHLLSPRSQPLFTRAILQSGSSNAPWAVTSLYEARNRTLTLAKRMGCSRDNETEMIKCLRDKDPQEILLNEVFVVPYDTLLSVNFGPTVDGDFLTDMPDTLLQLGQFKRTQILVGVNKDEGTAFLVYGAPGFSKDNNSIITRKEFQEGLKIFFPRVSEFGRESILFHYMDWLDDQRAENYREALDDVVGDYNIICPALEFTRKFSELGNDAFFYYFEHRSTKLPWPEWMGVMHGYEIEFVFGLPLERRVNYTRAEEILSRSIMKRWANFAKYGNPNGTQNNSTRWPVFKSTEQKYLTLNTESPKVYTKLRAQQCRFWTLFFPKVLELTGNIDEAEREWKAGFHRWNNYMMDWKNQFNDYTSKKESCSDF
Assay: Inhibition of equine serum BChE using butyrylthiocholine iodide as substrate up to 100 nM after 60 mins by Ellman's method

Row | SMILES | inhibition
10 | COc1ccc([C@@H]2CC(c3c4ccccc4cc4ccccc34)=NN2)cc1 | inactive
11 | Oc1ccccc1[C@@H]1CC(c2c3ccccc3cc3ccccc23)=NN1 | inactive
12 | c1ccc([C@@H]2CC(c3c4ccccc4cc4ccccc34)=NN2)nc1 | inactive
13 | c1ccc([C@@H]2CC(c3c4ccccc4cc4ccccc34)=NN2)cc1 | inactive
14 | Clc1ccc([C@@H]2CC(c3c4ccccc4cc4ccccc34)=NN2)cc1 | inactive
15 | O=[N+]([O-])c1cccc([C@@H]2CC(c3c4ccccc4cc4ccccc34)=NN2)c1 | inactive
16 | Oc1ccc([C@@H]2CC(c3c4ccccc4cc4ccccc34)=NN2)c(O)c1 | inactive
